From US9095591B2, “Pharmaceutical composition for use in the treatment of glaucoma” (Institut National de la Sante et de la Recherche Medicale …, priority 2010, dated 2015)
“Also recorded” adds a separate entry of the source.

Tests used:
[1] = test system: rat model of surgically-induced glaucoma; experiment: Intraocular pressure (IOP, TonoPen) in rat model of surgically-induced glaucoma (episcleral vein cauterization); format: in vivo, Brown Norway rats; settings: for effect on IOP in control (nonglaucomatous, non-operated) eyes: subconjunctival injection; for effect on IOP in glaucomatous eyes (CXCR4 antagonist comparison): subconjunctival injections, FIG. 3
Description: In order to test the functionality of putative CXCR3 blocking compounds on intraocular pressure (IOP), an in vivo test is necessary. For that purpose a model of local eye hypertonia is highly relevant. The model of ocular hypertonia in rats by episcleral vein occlusion (Garcia-Valenzuela et al., 1995) as described in the figures can be used to test such molecules.
Subconjunctival injections of NBI74330 (1 μM) or vehicle were performed in glaucoma eyes and in control eyes. One single injection of NBI (A) induced a reduction in IOP during 3 days (p<0.001). Two injections of NBI (A and B) induced a decrease in IOP during 12 days (p<0.001). […] (In vivo measurements of the IOP using TonoPen).
Male 8-week-old Brown Norway rats weighing 300-400 g were housed in Jussieu animal house (UMRS968, Vision Institute, Paris, France). All experiments were conducted in accordance with the Association for Research in Vision and Ophthalmology for the Use of Animals in Ophthalmic research. Ocular integrity was checked using slit lamp biomicroscope. Surgical model of elevated IOP was induced in the right eye of each rat by cauterization of three episcleral veins after conjunctival dissection as previously reported [Bayer A U et Al., 2001 and Garcia-Valenzuela E et Al., 1995] under general anaesthesia (intra peritoneal injection of ketamine 75 mg/kg and xylazine 10 mg/kg). Left eyes underwent conjunctival dissection only as controls. After the surgery, animals were maintained for a 1-month period and monitored for IOP three times a week using a handheld tonometer (Tonopen, Medtronics, Jacksonville, Fla.) without sedation. 30 animals presenting a stable elevated IOP were included and randomly divided in three equal groups: in both eyes, 10 rats received one subconjunctival injection of NBI74330 (1 μM, 100 μl), […], and 10 rats received a vehicle injection (PBS, 100 μl). IOP was monitored every two days by one independent person i.e. who was blind of the treatment. At the end of the experiments, animals were euthanized and the eyes were immediately conditioned for IHC.

[2] = test system: trabecular cells; experiment: Trabecular cell apoptosis by TUNEL-labeling in rat glaucoma model; format: in vivo, Brown Norway rats; settings: glaucoma eyes treated vs untreated
Description: (§1) Eyes were conditioned into cryosections and assessed for apoptosis using TUNEL-labeling. TM was identified in each cryosections as a pigmented slim tissue on the posterior sclera-cornea beside the iris root and just above the endothelial Schlemm's canals.
Investigations were conducted in order to study mechanisms involved in the NBI-74330-related decrease in IOP. Aqueous humor outflow was measured by in vivo fluorophotometry (FIG. 4A) and the trabecular aqueous outflow evaluated by fluorescent microsphere injection and ex vivo confocal imaging of TMs (data not shown). […] This decrease in trabecular outflow facility is similar to what is observed during hypertensive POAG in humans. […] In parallel, rat TM tissues were assessed for cellularity and apoptosis by immunohistofluorescence and TUNEL-labeling.

[3] = test system: retinal ganglion cells; experiment: Apoptosis of Schlemm cells, retinal cells and retinal ganglion cells by TUNEL-labeling in rat glaucoma model; format: in vivo, Brown Norway rats
Description: as §1
Moreover, NBI-related reduction in IOP was associated with a decrease in retinal ganglion cell apoptosis as assessed by TUNEL-labeling (4.01±0.86, 11.11±3.62, and 5.73±1.15 apoptotic retinal ganglion cells/mm for control eyes, untreated glaucomatous eyes, and NBI-treated glaucomatous eyes, respectively; P<0.05 between each group).

[4] = test system: rat model of surgically-induced glaucoma; experiment: Aqueous humor outflow by in vivo fluorophotometry in rat glaucoma model; parameters: species or system Brown Norway rats; settings: glaucomatous eyes vs vehicle-treated; 1 μM, 100 μL, two subconjunctival injections
Description: (§2) Aqueous humor outflow was measured by in vivo fluorophotometry (FIG. 4A) and the trabecular aqueous outflow evaluated by fluorescent microsphere injection and ex vivo confocal imaging of TMs (data not shown). […] In parallel, rat TM tissues were assessed for cellularity and apoptosis by immunohistofluorescence and TUNEL-labeling.

[5] = test system: trabecular meshwork; experiment: Trabecular percent effective filtration length (fluorescent microsphere injection, ex vivo confocal imaging of TMs); format: in vivo, Brown Norway rats; settings: glaucomatous eyes; 1 μM, 100 μL, two subconjunctival injections
Description: as §2

[6] = glaucoma eyes treated vs untreated

SMILES | effect on IOP in control (nonglaucomatous, non-operated) eyes [1] | effect on IOP in control (nonglaucomatous, non-operated) eyes ([1]; listed as AMD-3100) | effect on IOP in glaucomatous eyes (CXCR4 antagonist comparison) ([1]; glaucomatous eyes (n=20)) | effect on IOP in glaucomatous eyes (CXCR4 antagonist comparison) ([1]; glaucomatous eyes (n=20), listed as AMD-3100) | trabecular cell apoptosis (TUNEL) [2] | trabecular cell apoptosis (TUNEL) ([2]; listed as NBI-74330) | effect on IOP in control (nonglaucomatous, non-operated) eyes ([1]; listed as NBI-74330) | duration of reduction in IOP ([1]; glaucoma eyes, one single subconjunctival injection, 1 μM, p<0.001) [days] | IOP after a second injection ([1]; glaucoma eyes, second subconjunctival injection 4 days after the first one) | time course of IOP lowering after a single injection ([1]; glaucoma eyes, single subconjunctival injection 1 μM, 100 μl) | duration of decrease in IOP ([1]; glaucoma eyes, two subconjunctival injections, 1 μM, p<0.001) [days] | dose dependence of IOP reduction ([1]; glaucomatous eyes (n=20), FIG. 2) | effect on IOP in glaucoma eyes ([1]; surgically-induced elevated IOP, subconjunctival injection 1 μM, 100 μl) | retinal ganglion cell apoptosis (TUNEL) ([3]; NBI-treated glaucomatous eyes, control eyes 4.01±0.86, untreated glaucomatous eyes 11.11±3.62, P<0.05) | TUNEL labeling of endothelial Schlemm cells [3, 6] | TUNEL labeling of retinal cells (inner nuclear layer and ganglion cell layer) [3, 6] | aqueous humor outflow (AHO) [4] | percent effective filtration length (PEFL), trabecular filtrating surface [5]
c1cc(CN2CCCNCCNCCCNCC2)ccc1CN1CCCNCCNCCCNCC1 [AMD3100] | did not affect the IOP; also recorded: had no effect on the basal IOP level | had any effect on IOP | did not affect the IOP | did not influence IOP | – | – | – | – | – | – | – | – | – | – | – | – | – | –
CCOc1ccc(-n2c(C(C)N(Cc3cccnc3)C(=O)Cc3ccc(F)c(C(F)(F)F)c3)nc3ncccc3c2=O)cc1 (stereo not shown) [NBI74330] | did not influence the IOP; also recorded: had no effect on the basal IOP level | – | – | – | Apoptosis was higher in trabecular cells of untreated glaucoma eyes than in glaucoma eyes treated with NBI74330 | Trabecular apoptosis was reversed; also recorded: significantly reduced the amount of apoptotic TCs | had any effect on IOP | 3 | a significantly low IOP was maintained until the end of the experiments | significant the 2nd to the 5th day after the treatment, reaching the average IOP level of control eyes | 12 | reduced the IOP in glaucomatous eyes (n=20) in a dose-dependent manner | induced an IOP lowering | 5.73±1.15 apoptotic retinal ganglion cells/mm | more TUNEL labeling in the untreated glaucoma eyes than in glaucoma eyes treated with NBI74330 | more TUNEL labeling in the untreated glaucoma eyes than in glaucoma eyes treated with NBI74330 | AHO was improved; also recorded: aqueous humor outflow impairment was significantly reversed | significantly improved
